Laboratory results as given in US20240226228A1, “ANTIMICROBIAL PEPTOID HAVING IMPROVED SELECTIVITY AND ANTIMICROBIAL COMPOSITION COMPRISING SAME” (priority 2021, published 2024).
Converted amounts (≈) assume the structure as drawn. Where two headings read alike, the source gives them in different places. Where a SMILES comes first, the peptide text is derived from it. [ ]: non-standard residue; d: D form. Gly(N(CH2)2(3-indolyl)) = O=C(O)CNCCc1c[nH]c2ccccc12; Gly(N-CH2CH2-imidazol-4-yl) = O=C(O)CNCCc1c[nH]cn1; Nspe = C[C@H](NCC(=O)O)c1ccccc1; Nphe = O=C(O)CNCc1ccccc1; Nlys = NCCCCNCC(=O)O

How the values were obtained:
[1] = tested on: E. coli ATCC25922
Procedure, shortened: (§1)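 Cation-adjusted MHB2 cultures (18 h, subcultured 4 h) adjusted to 2×10^5–5×10^5 CFU/mL in medium with 0.02% BSA and 0.001% acetic acid.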

[2] = tested on: S. aureus ATCC 25923
Procedure, shortened: as §1

[3] = tested on: red blood cells; test: Hemolysis assay; format: cell-based, Sprague-Dawley mouse
Procedure, shortened: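 Peptoid is mixed with 10% (v/v) PBS-washed erythrocytes (male Sprague-Dawley […], 13 weeks) and held 1 h at 37 °C. Hemolysis is calculated from 540 nm absorbance of the supernatant, with PBS as 0% and Triton X-100 as 100%.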

[4] = Table 18, TFA salt vs counter ion-substituted (HCl, AcOH) peptoids
[5] = Tables 11-13, 24 hours at 37° C., maximum concentration 25 μM

SMILES: C[C@@H](c1ccccc1)N(CC(N)=O)C(=O)CN(C(=O)CN(CCCCN)C(=O)CN(C(=O)CN(CCc1c[nH]c2ccccc12)C(=O)CN(CCCCN)C(=O)CN(CCc1c[nH]c2ccccc12)C(=O)CN(C(=O)CN(CCCCN)C(=O)CN(C(=O)CN(C(=O)CNCCCCN)[C@@H](C)c1ccccc1)[C@@H](C)c1ccccc1)[C@@H](C)c1ccccc1)[C@@H](C)c1ccccc1)[C@@H](C)c1ccccc1 [Peptoid 15-2]
- MIC E. coli ATCC25922 [1, 4]: 6.3 µM
- MIC S. aureus ATCC 25923 [2, 4]: 3.1 µM
- HC10 [3]: 39.2 µM
- HC50 [3]: > 100 µM
- Hmax (100 μM) [3]: 34.1 ± 1.1%

SMILES: C[C@@H](c1ccccc1)N(CC(N)=O)C(=O)CN(C(=O)CN(CCCCN)C(=O)CN(C(=O)CN(C(=O)CN(CCCCN)C(=O)CN(C(=O)CN(CCCCN)C(=O)CN(CCCCN)C(=O)CN(CCc1c[nH]c2ccccc12)C(=O)CN(CCc1c[nH]c2ccccc12)C(=O)CNCCCCN)[C@@H](C)c1ccccc1)[C@@H](C)c1ccccc1)[C@@H](C)c1ccccc1)[C@@H](C)c1ccccc1 [Peptoid 34]
- MIC E. coli ATCC25922 [1, 5]: 25 µM (≈ 46.6 µg/mL)
- MIC S. aureus ATCC 25923 [2, 5]: 3.1 µM (≈ 5.78 µg/mL)
- HC10 [3]: >100/>100 μM
- HC50 [3]: >100/>100 μM
- Hmax (100 μM) [3]: 8.5 ± 1.1%

SMILES: C[C@@H](c1ccccc1)N(CC(=O)N(CCCCN)CC(=O)N(CC(=O)N(CC(=O)N(CCCCN)CC(=O)N(CCCCN)CC(=O)N(CC(=O)N(CCCCN)CC(=O)N(CCc1c[nH]c2ccccc12)CC(=O)N(CCc1c[nH]c2ccccc12)CC(N)=O)Cc1ccccc1)[C@@H](C)c1ccccc1)[C@@H](C)c1ccccc1)C(=O)CN(C(=O)CNCCCCN)[C@@H](C)c1ccccc1 [Peptoid 39] (H-[Nlys][Nspe][Nspe][Nlys][Nspe][Nspe][Nlys][Nlys][Nphe][Nlys][Gly(N(CH2)2(3-indolyl))][Gly(N(CH2)2(3-indolyl))]-NH2)
- MIC E. coli ATCC25922 [1, 5]: 25 µM (≈ 46.3 µg/mL)
- MIC S. aureus ATCC 25923 [2, 5]: 6.3 µM (≈ 11.7 µg/mL)
- HC10 [3]: 100/>100 μM
- HC50 [3]: 100/>100 μM
- Hmax (100 μM) [3]: 10.2 ± 0.3%

SMILES: C[C@@H](c1ccccc1)N(CC(N)=O)C(=O)CN(C(=O)CN(CCCCN)C(=O)CN(C(=O)CN(CCc1c[nH]c2ccccc12)C(=O)CN(CCCCN)C(=O)CN(CCc1c[nH]c2ccccc12)C(=O)CN(C(=O)CN(CCCCN)C(=O)CN(C(=O)CN(C(=O)CNCCCCN)[C@@H](C)c1ccccc1)[C@@H](C)c1ccccc1)[C@@H](C)c1ccccc1)[C@@H](C)c1ccccc1)[C@@H](C)c1ccccc1 [Peptoid 15-1]
- MIC E. coli ATCC25922 [1, 4]: 6.3 µM
- MIC S. aureus ATCC 25923 [2, 4]: 3.1 µM
- HC10 [3]: 50.4 µM
- HC50 [3]: > 100 µM
- Hmax (100 μM) [3]: 33.4 ± 9.7%

SMILES: C[C@@H](c1ccccc1)N(CC(=O)N(CCCCN)CC(=O)N(CCc1c[nH]c2ccccc12)CC(=O)N(CCc1c[nH]c2ccccc12)CC(N)=O)C(=O)CN(CCc1c[nH]cn1)C(=O)CN(CCCCN)C(=O)CN(C(=O)CN(C(=O)CN(CCCCN)C(=O)CN(C(=O)CN(C(=O)CNCCCCN)[C@@H](C)c1ccccc1)[C@@H](C)c1ccccc1)[C@@H](C)c1ccccc1)[C@@H](C)c1ccccc1 [Peptoid 78] (H-[Nlys][Nspe][Nspe][Nlys][Nspe][Nspe][Nlys][Gly(N-CH2CH2-imidazol-4-yl)][Nspe][Nlys][Gly(N(CH2)2(3-indolyl))][Gly(N(CH2)2(3-indolyl))]-NH2)
- MIC E. coli ATCC25922 ([1]; ATCC25922): 6.3 µM (≈ 11.9 µg/mL)
- MIC S. aureus ATCC 25923 ([2]; ATCC 25923): 6.3 µM (≈ 11.9 µg/mL)
- HD10 [3]: >100.0/>100.0
- HD50 [3]: >100.0/>100.0
- Hmax (100 μM) [3]: 5.2 ± 0.2

SMILES: C[C@@H](c1ccccc1)N(CC(N)=O)C(=O)CN(C(=O)CN(CCCCN)C(=O)CN(C(=O)CN(C(=O)CN(CCCCN)C(=O)CN(CCc1c[nH]c2ccccc12)C(=O)CN(CCc1c[nH]c2ccccc12)C(=O)CN(CCCCN)C(=O)CN(CCc1c[nH]c2ccccc12)C(=O)CN(CCc1c[nH]c2ccccc12)C(=O)CNCCCCN)[C@@H](C)c1ccccc1)[C@@H](C)c1ccccc1)[C@@H](C)c1ccccc1 [Peptoid 21]
- MIC E. coli ATCC25922 [1, 5]: 6.3 µM (≈ 12.4 µg/mL)
- MIC S. aureus ATCC 25923 [2, 5]: 1.6 µM (≈ 3.16 µg/mL)
- HC10 [3]: 23.2 µM
- HC50 [3]: 64.9 µM
- Hmax (100 μM) [3]: 83.7 ± 2.0%

SMILES: C[C@@H](c1ccccc1)N(CC(=O)N(CCCCN)CC(=O)N(CCc1c[nH]c2ccccc12)CC(=O)N(CCc1c[nH]c2ccccc12)CC(N)=O)C(=O)CN(CCCCN)C(=O)CN(CCc1c[nH]cn1)C(=O)CN(C(=O)CN(C(=O)CN(CCCCN)C(=O)CN(C(=O)CN(C(=O)CNCCCCN)[C@@H](C)c1ccccc1)[C@@H](C)c1ccccc1)[C@@H](C)c1ccccc1)[C@@H](C)c1ccccc1 [Peptoid 79] (H-[Nlys][Nspe][Nspe][Nlys][Nspe][Nspe][Gly(N-CH2CH2-imidazol-4-yl)][Nlys][Nspe][Nlys][Gly(N(CH2)2(3-indolyl))][Gly(N(CH2)2(3-indolyl))]-NH2)
- MIC E. coli ATCC25922 ([1]; ATCC25922): 6.3 µM (≈ 11.9 µg/mL)
- MIC S. aureus ATCC 25923 ([2]; ATCC 25923): 6.3 µM (≈ 11.9 µg/mL)
- HD10 [3]: >100.0/>100.0
- HD50 [3]: >100.0/>100.0
- Hmax (100 μM) [3]: 8.5 ± 0.6

SMILES: C[C@@H](c1ccccc1)N(CC(N)=O)C(=O)CN(C(=O)CN(CCCCN)C(=O)CN(C(=O)CN(C(=O)CN(CCCCN)C(=O)CN(CCc1c[nH]c2ccccc12)C(=O)CN(CCc1c[nH]c2ccccc12)C(=O)CN(CCCCN)C(=O)CN(C(=O)CN(C(=O)CNCCCCN)[C@@H](C)c1ccccc1)[C@@H](C)c1ccccc1)[C@@H](C)c1ccccc1)[C@@H](C)c1ccccc1)[C@@H](C)c1ccccc1 [Peptoid 13]
- MIC E. coli ATCC25922 [1, 5]: 6.3 µM (≈ 12 µg/mL)
- MIC S. aureus ATCC 25923 [2, 5]: <0.8 µM
- HC10 [3]: 20.2 µM
- HC50 [3]: 41.3 µM
- Hmax (100 μM) [3]: 96.8 ± 1.6%

SMILES: C[C@@H](c1ccccc1)N(CC(=O)N(CCCCN)CC(=O)N(CC(=O)N(CC(=O)N(CCCCN)CC(=O)N(CC(=O)N(CC(=O)N(CCCCN)CC(N)=O)[C@@H](C)c1ccccc1)[C@@H](C)c1ccccc1)[C@@H](C)c1ccccc1)[C@@H](C)c1ccccc1)C(=O)CN(C(=O)CN(CCCCN)C(=O)CN(CCc1c[nH]c2ccccc12)C(=O)CNCCc1c[nH]c2ccccc12)[C@@H](C)c1ccccc1 [Peptoid 37-2] (H-[Gly(N(CH2)2(3-indolyl))][Gly(N(CH2)2(3-indolyl))][Nlys][Nspe][Nspe][Nlys][Nspe][Nspe][Nlys][Nspe][Nspe][Nlys]-NH2)
- MIC E. coli ATCC25922 [1, 4]: 6.3 µM
- MIC S. aureus ATCC 25923 [2, 4]: 1.6 µM
- HC10 [3]: 12.5 µM
- HC50 [3]: 26.0 µM
- Hmax (100 μM) [3]: 98.9 ± 8.0%

SMILES: C[C@@H](c1ccccc1)N(CC(=O)N(CCCCN)CC(=O)N(CC(=O)N(CC(=O)N(CCCCN)CC(=O)N(CC(=O)N(CC(=O)N(CCCCN)CC(=O)N(CC(=O)N(CCc1c[nH]c2ccccc12)CC(N)=O)[C@@H](C)c1ccccc1)[C@@H](C)c1ccccc1)[C@@H](C)c1ccccc1)[C@@H](C)c1ccccc1)[C@@H](C)c1ccccc1)C(=O)CN(CCc1c[nH]c2ccccc12)C(=O)CNCCCCN [Peptoid 17] (H-[Nlys][Gly(N(CH2)2(3-indolyl))][Nspe][Nlys][Nspe][Nspe][Nlys][Nspe][Nspe][Nlys][Nspe][Gly(N(CH2)2(3-indolyl))]-NH2)
- MIC E. coli ATCC25922 [1, 5]: 6.3 µM (≈ 12 µg/mL)
- MIC S. aureus ATCC 25923 [2, 5]: 1.6 µM (≈ 3.04 µg/mL)
- HC10 [3]: 18.0 µM
- HC50 [3]: 39.7 µM
- Hmax (100 μM) [3]: 87.3 ± 6.7%

SMILES: C[C@@H](c1ccccc1)N(CC(N)=O)C(=O)CN(CCc1c[nH]cn1)C(=O)CN(CCCCN)C(=O)CN(C(=O)CN(C(=O)CN(CCCCN)C(=O)CN(C(=O)CN(C(=O)CN(CCCCN)C(=O)CN(CCc1c[nH]c2ccccc12)C(=O)CN(CCc1c[nH]c2ccccc12)C(=O)CNCCCCN)[C@@H](C)c1ccccc1)[C@@H](C)c1ccccc1)[C@@H](C)c1ccccc1)[C@@H](C)c1ccccc1 [Peptoid 76] (H-[Nlys][Gly(N(CH2)2(3-indolyl))][Gly(N(CH2)2(3-indolyl))][Nlys][Nspe][Nspe][Nlys][Nspe][Nspe][Nlys][Gly(N-CH2CH2-imidazol-4-yl)][Nspe]-NH2)
- MIC E. coli ATCC25922 ([1]; ATCC25922): 6.3 µM (≈ 11.9 µg/mL)
- MIC S. aureus ATCC 25923 ([2]; ATCC 25923): 6.3 µM (≈ 11.9 µg/mL)
- HD10 [3]: >100.0/>100.0
- HD50 [3]: >100.0/>100.0
- Hmax (100 μM) [3]: 10.1 ± 0.7

SMILES: C[C@@H](c1ccccc1)N(CC(=O)N(CCCCN)CC(=O)N(CC(=O)N(CC(=O)N(CCCCN)CC(=O)N(CCc1c[nH]c2ccccc12)CC(=O)N(CCc1c[nH]c2ccccc12)CC(N)=O)[C@@H](C)c1ccccc1)[C@@H](C)c1ccccc1)C(=O)CN(C(=O)CN(CCCCN)C(=O)CN(CCc1c[nH]c2ccccc12)C(=O)CN(CCc1c[nH]c2ccccc12)C(=O)CNCCCCN)[C@@H](C)c1ccccc1 [Peptoid 18] (H-[Nlys][Gly(N(CH2)2(3-indolyl))][Gly(N(CH2)2(3-indolyl))][Nlys][Nspe][Nspe][Nlys][Nspe][Nspe][Nlys][Gly(N(CH2)2(3-indolyl))][Gly(N(CH2)2(3-indolyl))]-NH2)
- MIC E. coli ATCC25922 [1, 5]: 12.5 µM (≈ 24.7 µg/mL)
- MIC S. aureus ATCC 25923 [2, 5]: 3.1 µM (≈ 6.12 µg/mL)
- HC10 [3]: 14.3 µM
- HC50 [3]: 37.8 µM
- Hmax (100 μM) [3]: 103.5 ± 4.3%
